# Columns and labels:
# primary mouse adipocytes = experiment: 2-deoxy-3H-glucose uptake in primary mouse adipocytes; type: cell-based
# Procedure: (§1) Mouse and human pre-adipocytes culture and differentiation. Inguinal fat pads from 4-8 week old C57BL/6J male and female mice were dissected and mechanically digested for 10 min using spring scissors. Digested tissues were incubated in WAT isolation buffer (10 ml PBS, 2.4 U/ml dispase II (#04942078001, Roche), 10 mg/ml collagenase D (#11088858001, Roche) at 37° C. for 45 min. 20 mL growth media was added and the tissue suspension was filtered through a 100-μm cell strainer and centrifuged at 600×g for 5 min. The cell pellets were resuspended in 20 mL growth media, filtered through a 40-μm cell strainer, centrifuged at 600×g for 5 min, resuspended in 10 mL growth media, and plated in 10-cm collagen-coated dishes. The cells were cultured in growth media (DMEM/F-12 Glutamax, Thermo Fisher Scientific #10565018) supplemented with 10% fetal bovine serum. Two days post-confluency, differentiation was induced with growth media containing 1 μM rosiglitazone, 0.5 mM isobutylmethylxanthine, 1 μM dexamethasone, 5 μg/mL insulin. After two days, cells were re-fed with growth media containing 1 μM rosiglitazone and 5 μg/mL insulin. Cells were fully differentiated after 6-8 days. For ISM1 knockdown or overexpression in primary adipocytes using adenovirus, 500 μL crude virus was mixed with 500 μL fresh growth media containing 1 μM rosiglitazone and 5 μg/mL insulin was added to each well at day 2 of differentiation. At day 4, virus-containing media was removed and 500 μL fresh growth media without stimulators was added to each well. SGBS cells were differentiated as described previously (Fischer-Posovszky et al., 2008; Wabitsch et al., 2001). Briefly, cells were cultured in growth media DMEM/F-12 Glutamax, supplemented with 10% fetal bovine serum, 33 uM biotin, and 17 uM pantothenate. Two days post confluency, differentiation was induced with serum-free DMEM/F12 media containing 33 uM biotin, 17 uM pantothenate, 0.01 mg/ml transferrin, 20 nM insulin, 100 nM cortisol, 0.2 nM triiodothyronine, 25 nM dexamethasone, 0.25 mM isobutyl methylxanthine, and 2 μM rosiglitazone. After four days, cells were re-fed with growth media containing 0.01 mg/ml transferrin 20 nM insulin, 100 nM cortisol, 0.2 nM triiodothyronine. Cells were fully differentiated after day 8-10.
# (§2) Glucose uptake. Glucose uptake was performed as previously described (You et al., 2017). Briefly, 2-Deoxy-d-[2,6-3H]-glucose was purchased from PerkinElmer NEN radiochemicals. Fully differentiated adipocytes were washed with KRH buffer and starved in 0.5% BSA in KRH buffer for 4 h. Indicated concentrations of insulin or ISM1 were added at indicated time points. Cells were treated with a mixture of 500 μM 2-deoxy-D-glucose and 1.71 μCimL^−1 2-Deoxy-D-[1,2-3H (N)]-glucose for another 10 min followed by three washes using ice cold KRH buffer containing 200 mM glucose. The passive glucose uptake in the presence of 50 uM CytoB was less than 12% of the total glucose uptake. Cells were solubilized in 1% SDS and radioactivity was measured by liquid scintillation counting.
# pAKT^S473 [1] = experiment: Signaling induced by ISM1 or insulin in 3T3-F442A cells pre-treated with inhibitors; type: cell-based; settings: for effect of inhibitor on pAKT^S473 phosphorylation induced by ISM1 and insulin: ISM1 100 nM or insulin 100 nM, 3T3-F442A cells
# Procedure: (§3) Western blots and molecular analyses. For western blotting, homogenized tissues or whole-cell lysates, samples were lysed in RIPA buffer containing protease inhibitor cocktail (Roche) and phosphatase inhibitor cocktail (Roche). Cell lysates were centrifuged at 14,000×g for 15 min and supernatants were prepared in 4×LDS Sample Buffer (Invitrogen) and separated by SDS-PAGE and transferred to Immobilon 0.45 μm membranes (Millipore). For Western blotting of plasma samples, 1 μl of plasma was prepared in 2× sample buffer (Invitrogen) with reducing agent, boiled, and analyzed using Western blot against indicated antibody. Protein kinase array (R&D systems ARY003B) was performed according to the manufacturers' description. All antibodies used in this paper are described in STAR methods.
# DIO mice = experiment: Therapeutic ISM1, Metformin or combined administration for 21 days in DIO mice; type: in vivo, mouse; settings: daily for 21 days; compared with vehicle
# Procedure: Therapeutic ISM1 recombinant protein administration in vivo. All pharmacologic studies using recombinant ISM1 protein were performed in mice with established diet-induced obesity or non-alcoholic fatty liver disease (NAFLD). For all experiments, male C57BL/6J mice purchased from Jax were fed either a high-fat diet (#D12492, Research Diets) or a NAFLD diet (#D09100310, Research Diets) prior to ISM1 protein injections. In all experiments, mice were mock injected with saline for three days prior to protein or drug injections to prevent stress-induced weight loss. Mice were I.P. injected with vehicle (saline) or indicated doses of ISM1 protein diluted in saline. For the 14-day experiments in NAFLD mice, 7-weeks old mice were fed with NAFLD diet for 3 weeks and then mock injected with saline for 3 days prior to protein injections. The induction of lipid accumulation with NAFLD diet was verified by the significant increase in hepatic lipid levels compared with mice on chow diet at the same time point. NAFLD mice were then daily I.P. injected with either vehicle (saline containing 5% DMSO and 10% Kolliphor) or indicated doses of ISM1 protein (500 μg/kg or 5 mg/kg) or with FXR agonist (30 mg/kg, GW4064, Sigma-Aldrich, #G5172) diluted in vehicle (saline containing 5% DMSO and 10% Kolliphor). For the 21-day experiments in HFD mice, mice were mock injected with saline for three days prior to protein injections. Mice were then daily I.P. injected with either vehicle (saline) or 5 mg/kg of ISM1 protein diluted in saline. Metformin (100 mg/kg, Sigma, #317240) was diluted in saline and daily administered by oral gavage. All groups received control injections by I.P. and oral gavage. At the end of the experiments, mice and tissue weights were recorded. Tissues and plasma were collected and frozen for further analyses.
# Glucose tolerance and insulin tolerance tests. For glucose tolerance tests, mice were fasted overnight and I.P. injected with glucose at 2 g/kg body weight. Blood glucose levels were measured at 0, 15, 30, 45, 60, 90 and 120 mins. For insulin tolerance tests, mice were fasted for 2 h, and I.P. injected with 0.75 U/kg insulin. Blood glucose levels were measured at 0, 15, 30, 45, 60, 90 and 120 mins.
# human SGBS adipocytes = experiment: 2-deoxy-3H-glucose uptake in human SGBS adipocytes; type: cell-based
# Procedure: as §1, §2
# pAKT^S473 [2] = experiment: pAKT S473 signaling in 3T3-F442A cells (phosphokinase array, western blot); type: cell-based; settings: 5 min
# Procedure: as §3
# [3] = test system: differentiated 3T3-L1 adipocytes; experiment: 2-deoxy-3H-glucose uptake in differentiated 3T3-L1 adipocytes; type: cell-based; settings: 1 h
# Procedure: as §2
# GLUT4 = GLUT4 translocation to the plasma membrane in primary adipocytes (immunostaining, fractionation); type: cell-based, mouse; settings: 100 nM
# Procedure: Biochemical analyses. Plasma insulin levels were measured using the Ultra-Sensitive Mouse Insulin ELISA kit (Crystal Chem Inc #90080). Plasma triglycerides were measured with Infinity triglyceride measurement kit (Thermo #TR22421) and tissue triglycerides were measured with a Triglyceride Colorimetric Assay Kit (Cayman #10010303). Lipolysis was measured in day 5 differentiated adipocytes after 4 hours of protein treatment using a glycerol release assay according to the protocol provided by the manufacturer (Abcam #ab133130). Plasma membrane protein extractions were performed according to the manufacturer's protocol (Abcam #ab65400).
# Immunocytochemistry. Primary mouse preadipocytes were seeded onto collagen-coated 22 mm×22 mm coverslips and differentiated using the method above. On day 8, differentiated adipocytes were washed with PBS and starved in 0.5% BSA in KRH buffer (50 mM HEPES, 136 mM NaCl, 1.25 mM MgSO4, 1.25 mM CaCl2, 4.7 mM KCl, pH 7.4) for 3.5 h. Cells were treated with insulin or ISM1 for 30 min, followed by three washes with cold PBS. Cells were fixed with 4% PFA in PBS for 15 min at room temperature. After blocking with 2% BSA, 5% goat serum, 0.2% Triton-X in PBS for 1 hr, cells were incubated with diluted primary antibody at 4° C. overnight. The next day, cells were washed and incubated with secondary antibody on ice for 1 hr. Cells were imaged using confocal microscope (Leica TCS SP8). Hoechst (#33342, thermo fisher) was used as counterstain.
# [4] = test system: pAKT^T308, S6^S235/S236, PRAS40^Thr246, ERK1/2, PKA, PDK1, GSK3β; experiment: Time-course western blot of intracellular signaling pathways in 3T3-F442A cells; type: cell-based; settings: 100 nM; time course
# Procedure: as §3
# [5] = test system: IGF-I-Receptor β Tyr1135/1136 or Insulin receptor Tyr1150/1151; experiment: Western blot of phosphorylated insulin and IGF receptors in 3T3-F442A cells; type: cell-based; settings: 100 nM; 2 minutes
# Procedure: as §3
# pTyr = experiment: Western blot of pTyr levels; type: cell-based; settings: 100 nM; 2 minutes
# Procedure: as §3
# AML12 hepatocytes = experiment: Lipogenesis assay (3H-acetate incorporation into lipids) in AML12 hepatocytes; type: cell-based, mouse; settings: 50 nM insulin; 24 h
# Procedure: Lipogenesis Assay. Primary hepatocytes or AML12 hepatocytes were washed twice with warm PBS and starved in serum-free DMEM overnight. Indicated concentrations of insulin with or without ISM1 were added at the same time. After 24 h, a mixture of 10 μM cold acetate and 2 μCi [3H]-Acetate (#NET003H005MC, PerkinElmer) was added to each well and cells were incubated for another 4 hr. Cells were washed with PBS twice and lysed using 0.1 N hydrogen chloride. Lipids were extracted by 2:1 chloroform-methanol (v/v). After centrifugation at 3000×g for 10 min, the lower phase was transferred to scintillation vials and radioactivity was measured by liquid scintillation counting.
# SREBP1c, FAS, ACC = experiment: Lipogenic protein and gene expression in AML12 hepatocytes; type: cell-based, mouse; settings: 50 nM insulin, with or without ISM1; 24 h
# Procedure: (§4) Gene expression analysis. Total RNA from cultured cells or tissues was isolated using TRIzol (Thermo Fischer Scientific) and Rneasy mini kits (QIAGEN). RNA was reverse transcribed using the ABI high capacity cDNA synthesis kit. For qRT-PCR analysis, cDNA, primers and SYBR-green fluorescent dye (ABI) were used. Relative mRNA expression was determined by normalization with Cyclophilin levels using the ΔΔCt method.
# as §3
# srebp1c = experiment: Lipogenic gene and SREBP-1c protein expression in primary adipocytes; type: cell-based, mouse; settings: primary adipocytes
# Procedure: as §4, §3
# [6] = pre-treated for 30 min, ISM1 or insulin 100 nM
molecule,measurement,setting,value
"C=C1[C@@H](C)[C@H]2[C@H](Cc3ccccc3)NC(=O)[C@]23OC(=O)/C=C/[C@H](O)CCC[C@@H](C)C/C=C/[C@H]3[C@@H]1O [CytoB, reference compound]",passive glucose uptake as share of total glucose uptake,primary mouse adipocytes; 50 uM CytoB,less than 12%
COc1ccccc1N1CCN(c2ncnc3n[nH]c(Br)c23)CC1 [DG2],effect of inhibitor on S6^S235/S236,pAKT^S473 [1]; [6],dose-dependently inhibited
same,pAKT in presence of inhibitor,pAKT^S473 [1]; [6],remained intact
CCOc1cn(-c2ccc(F)cc2C)nc1C(=O)Nc1ccc(Oc2ccnc3cc(OC)c(OC)cc23)c(F)c1 [LDC1267],effect of inhibitor on signaling induced by PDGFββ or insulin,"pAKT^S473 [1]; any of the doses tested, insulin 200 nM, PDGF-ββ 20 ng/ml",neither the signaling induced by PDGFββ or insulin are inhibited
same,effect of inhibitor on ISM1-induced pAKT signaling,"pAKT^S473 [1]; pre-treated for 30 min, ISM1 200 nM",inhibited
"CN(C)C(=N)N=C(N)N [Metformin, reference compound]",fasting blood glucose,DIO mice,lower
same,glucose tolerance (GTT),DIO mice,comparable effects on improving glucose tolerance
"C[C@]1(O)C[C@@H](c2nc(-c3ccc4ccc(-c5ccccc5)nc4c3)c3c(N)nccn32)C1 [OSI-906, reference compound]",insulin-induced glucose uptake in presence of inhibitor,human SGBS adipocytes; 50 nM OSI-906,significantly reduced
same,ISM1-induced glucose uptake in presence of inhibitor,"human SGBS adipocytes; 50 nM OSI-906, 100 nM ISM1",not affected
same,insulin signaling in presence of inhibitor,"pAKT^S473 [1]; 1000 nM OSI-906, insulin 100 nM",completely abolished
same,ISM1 signaling in presence of inhibitor,"pAKT^S473 [1]; even at 1000 nM OSI-906, ISM1 100 nM",intact
COc1ncc(-c2ccc3nccc(-c4ccnnc4)c3c2)cc1NS(=O)(=O)c1ccc(F)cc1F [Omipalisib],effect of inhibitor on pAKT^S473 phosphorylation induced by ISM1 and insulin,pAKT^S473 [1],completely block
Cc1ccc([N+](=O)[O-])cc1S(=O)(=O)N(C)/N=C/c1cnc2ccc(Br)cn12 [PIK],effect of inhibitor on pAKT^S473 phosphorylation induced by ISM1 and insulin,pAKT^S473 [1],completely block
CCC(=O)N1CCN(c2ccc(-n3c(=O)ccc4cnc5ccc(-c6cnc7ccccc7c6)cc5c43)cc2C(F)(F)F)CC1 [Torin],effect of inhibitor on pAKT^S473 phosphorylation induced by ISM1 and insulin,pAKT^S473 [1],fully ablates
"Thrombospondin-1: his-tagged mouse Thrombospondin-1, control protein containing thrombospondin domains [reference compound]",bioactivity on pAKT^S473 (western blot),pAKT^S473 [2]; 100 nM,no bioactivity
albumin [reference compound],glucose uptake (protein control),primary mouse adipocytes; 100 nM,no effect
insulin [reference compound],concentration from which glucose uptake is increased,human SGBS adipocytes; doses ranging from 10 nM to 200 nM,20 nM
same,glucose uptake induction compared with ISM1,primary mouse adipocytes; 1 h,higher glucose induction than ISM1
same,induction of glucose uptake,[3],~40 fold
same,GLUT4 in plasma membrane fraction (biochemical fractionation),GLUT4; 4 h,translocation of GLUT4 to the plasma membrane
same,"GLUT4 at cell surface (immunostaining, confocal microscopy)",GLUT4; compared with control cells,higher levels of GLUT4 at cell surface
same,dose at which dose-dependent increase in pAKT^S473 phosphorylation starts,pAKT^S473 [2]; increasing doses,10 nM
same,pAKT^T308 phosphorylation,[4],phosphorylation at pAKT^T308 at all time points
same,IGF-R/IR phosphorylation,[5],induced IGF-R/IR phosphorylation
same,tyrosine phosphorylation of proteins,pTyr,induces phosphorylation of its receptors at larger molecular weights
same,de novo lipogenesis,AML12 hepatocytes,significant induction of lipogenesis
same,"SREBP1c cleavage, FAS and ACC protein expression","SREBP1c, FAS, ACC","increased expression of pre-SREBP1c as well as the cleaved SREBP1, and increased protein expression of FAS and ACC"
same,srebp1c expression under basal conditions,srebp1c,induces srebp1c expression

# From patent US20240342244A1, “Isthmin Protein Therapeutics for the Treatment of Non-Alcoholic Fatty Liver Disease” (The Board of Trustees of the Leland Stanford Junior …, priority 2021, published 2024)
